For assay [1], the target named is T1, Tyrosine-protein phosphatase non-receptor type 1 (Homo sapiens, UniProt P18031).
T1 sequence (P18031 whole entry): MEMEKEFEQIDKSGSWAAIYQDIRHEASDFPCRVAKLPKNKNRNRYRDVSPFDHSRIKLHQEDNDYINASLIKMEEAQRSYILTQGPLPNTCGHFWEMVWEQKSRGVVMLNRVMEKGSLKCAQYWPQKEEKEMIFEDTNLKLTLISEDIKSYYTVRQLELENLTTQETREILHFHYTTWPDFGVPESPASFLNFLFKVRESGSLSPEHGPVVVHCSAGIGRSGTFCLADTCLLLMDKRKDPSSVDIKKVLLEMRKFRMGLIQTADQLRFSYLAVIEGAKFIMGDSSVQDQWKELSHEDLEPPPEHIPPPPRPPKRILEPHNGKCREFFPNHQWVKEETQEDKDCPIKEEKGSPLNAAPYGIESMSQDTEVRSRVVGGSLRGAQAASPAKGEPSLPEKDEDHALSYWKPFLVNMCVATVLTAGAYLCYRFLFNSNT
The experiment in a line: Inhibition of recombinant PTP1B catalytic domain (unknown origin) assessed as reduction in pNP formation using pNPP as substrate by absorbance based analysis.

The target of assay [2] is T2, Tyrosine-protein phosphatase non-receptor type 1 (Homo sapiens) (UniProt P18031).
T2 sequence (whole entry): T1 sequence (P18031 whole entry)
The experiment in a line: Inhibition of recombinant PTP1B catalytic domain (unknown origin) assessed as reduction in pNP formation using pNPP as substrate at 20 ug/ml by absorbance based analysis relative to control. The note with it: dose 20.0 µg/ml.

Consider `CC(C)=CCc1cc(-c2oc3cc(O)cc(O)c3c(=O)c2CC=C(C)C)c(O)cc1O`, for which the 50% inhibitory concentration (IC50) in assay [1] amounted to 12.5 µM. For the same compound, the inhibition in assay [2] was found to be 77.6%.

For the compound `CC(C)=C[C@H]1Oc2cc(O)ccc2-c2oc3cc(O)ccc3c(=O)c21`, the IC50 in assay [1] is at least 50 µM. In assay [2], the inhibition worked out at 45.4%.

`CC(C)=CCc1c(O)ccc(C(=O)Oc2cc(/C=C/c3ccc(O)cc3O)cc(O)c2-c2cc(C)cc(-c3ccc(O)cc3O)c2)c1O`: the IC50 in assay [1] came to 1.8 µM. Moreover, the inhibition in assay [2] was 97%.

For `CC(C)=CCc1c(O)cc(-c2cc3ccc(O)cc3o2)cc1O` [MORACIN C], in assay [1], the IC50 came out at 10.2 µM. Also, the inhibition in assay [2] came to 90.6%.

With `CC(C)=CCc1cc(-c2oc3c(CC=C(C)C)c(O)cc(O)c3c(=O)c2CC=C(C)C)c(O)cc1O`, in assay [1], the IC50 was found to be 7.7 µM. Also, the inhibition in assay [2] is 93.3%.

As to `CC(C)=CCc1c(O)ccc(C(=O)Oc2cc(-c3cc4ccc(O)cc4o3)cc(O)c2-c2cc(C)cc(-c3ccc(O)cc3O)c2)c1O`, in assay [1], the IC50 was 1.3 µM. The inhibition in assay [2] amounted to 99.2%.

As to `CC(C)=CCc1c(-c2ccc(O)cc2O)oc2cc3c(c(O)c2c1=O)C=CC(C)(C)O3` [CUDRAFLAVONE B], the IC50 in assay [1] is 20 µM. Moreover, in assay [2], the inhibition turned out to be 70.9%.

Turning to `CC1(C)Oc2cc3oc(-c4cc(O)cc(O)c4)cc3cc2CC1O` (stereo not drawn) [(+/-)-MORACIN P], in assay [1], the IC50 is at least 50 µM. In assay [2], the inhibition is 39.1%.

With `CC(C)=CCC/C(C)=C/Cc1c(O)cc(O)c2c(=O)c(CC=C(C)C)c(-c3ccc(O)cc3O)oc12`, the IC50 in assay [1] is 5.3 µM. In addition, in assay [2], the inhibition is 95.8%.

Consider `CC(C)=CCc1c(-c2ccc(O)cc2O)oc2c3c(cc(O)c2c1=O)OC(C)(C)C=C3` [MORUSIN], for which the IC50 in assay [1] amounted to 22.1 µM. The inhibition in assay [2] worked out at 71.5%.

One may read the IC50 as the concentration that gives 50% inhibition. As usually defined, the inhibition is the percentage by which the read-out fell short of the control.

The values are drawn from ChEMBL document CHEMBL4831504, “Rearranged Diels-Alder Adducts and Prenylated Flavonoids as Potential PTP1B Inhibitors from Morus nigra” (J Nat Prod, 2021).
